Where two headings read alike, the source gives them in different places.
Assays:
[1] = tested on: platelets in human whole blood; assay: whole blood platelet aggregation in vitro (collagen); type: cell-based; details: for inhibition of platelet aggregation: alone: cilostazol 0.3-3 μM, dipyridamole 1 or 3 μM, 0.1 or 0.3 μg/ml collagen; for effect on platelet aggregation in whole blood: alone: cilostazol 10 or 30 μM, dipyridamole 0.1, 0.3, 1 or 3 μM, 0.5 μg/ml collagen
Protocol: The electrodes were then placed in the cuvette and the sample was allowed to incubate at 37° C. while the instrument was calibrated. […] Dipyridamole was diluted in ethanol (EtOH) to a stock concentration of 100 mM. […] The suspension was allowed to incubate for 3 minutes before collagen was added. […] […] Data are expressed as percent of the values detected in the absence of any inhibition.

human washed platelets = assay: collagen-induced aggregation of washed platelets; type: cell-based; details: for inhibitory effect on washed platelet aggregation: alone: dipyridamole 1, 3 or 10 μM, cilostazol 30 or 100 nM, adenosine 1 μM; for IC50: Homo sapiens, Platelet; for inhibition of washed platelet aggregation: single agent + 1 μM adenosine (dipyridamole 1, 3, 10 μM; cilostazol 30 or 100 nM)
Protocol: Aggregation was quantified by the change in light transmission using an AG-10 Aggregation Analyzer (Kowa, Japan). Washed platelets were maintained at room temperature and the study was performed within 3 hours following blood collection. Cilostazol was dissolved in DMSO and adenosine was dissolved in water. […] Drug or vehicle (DMSO) was then added (0.4 μl) and incubated for another 3 minutes. […] The overall time of aggregation recorded was 15 minutes.

[2] = blood concentration during intravenous infusion; type: in vivo, rabbit; details: cilostazol 0.225 mg/kg bolus + 0.0175 mg/kg/min i.v.; dipyridamole 20 μg/kg/min i.v.
Protocol: Sixty minutes after the surgery, injection of vehicle or the drug combination was initiated. After 20 minutes, the gastrocnemius muscle of the left hindlimb was stimulated throughout the rest of the experiment. Twenty minutes after the stimulation (40 minute time point in FIG. 15), the left femoral artery was clamped for 20 minutes to induce ischemia and then released to allow reperfusion. The regional blood flow was determined by the injection at 0, 20, 40, 60, and 80 minutes of blue-green, yellow-green, orange, red and crimson fluorescent microspheres.

[3] = tested on: adenosine uptake into washed human erythrocytes; assay: [3H]adenosine uptake into washed erythrocytes; type: cell-based
Protocol: Washed erythrocytes (wRBC) were prepared as follows.

[4] = tested on: whole blood platelet aggregation; assay: ex vivo whole blood platelet aggregation, clinical crossover study; type: in vivo, human; details: alone: cilostazol 100 mg, dipyridamole 200 mg
Protocol: On study day 4, subjects received one 200 mg tablet of dipyridamole. […] The platelet aggregation was induced by the addition of collagen (final concentration of 0.3 μg/ml, Nycomed Arzneimittel, Munchen, Germany). The percentage aggregation was recorded at each time point. To compare the effect of drug treatments, the aggregation at 2-hour and 4-hour is normalized as a percentage to the values prior to dosing.

[5] = tested on: isolated rabbit Langendorff hearts; details: concentrations below 1 μM, previous studies; cited from earlier work
PDE3 = details: Liu et al., 2000; read-out: potency for inhibition of PDE3; cited from earlier work
[6] = blood concentration after single oral dose; type: in vivo, human; details: 2 and 4 hours after a single dose
adenosine uptake = details: cited from earlier work; for IC50: read-out: IC50 of adenosine uptake inhibition
[7] = tested on: isolated rabbit Langendorff hearts; assay: cardiac function of isolated rabbit Langendorff hearts
Protocol: This study was conducted in accordance with the “Guide for the Care And Use of Laboratory Animals”, published by the National Research Council, 1996, Washington D.C., and approved by the Institutional Animal Care and Use Committee of Otsuka Maryland Research Institute, LLC. […] A tracheotomy was performed and the animals were intubated. […] The respiratory rate was adjusted to keep arterial blood PO2, PCO2 and pH in the physiological range. […] Hearts were exposed through a mid-line incision of the chest, and quickly excised by an incision at the base of the heart and put into ice-cold Krebs-Henseleit bicarbonate buffer. The heart was then attached to a Langendorff apparatus by the aortic root, and perfused with non-recirculating Krebs-Henseleit buffer at a constant pressure of 75 mmHg. The perfusate was bubbled with 95% O2 and 5% CO2 gas mixture, and the bubbling rate was adjusted to maintain physiological pH (7.35-7.45). Perfusate temperature was maintained at 38° C. by a circulating waterjacket surrounding the buffer reservoirs. The heart was also maintained at 38° C. via a water-jacketed housing in which it was suspended. The open top of the jacket was covered with a piece of parafilm to maintain the humidity and temperature. The pulmonary artery around the right side of the aortic root was cannulated for collecting coronary effluent and for coronary flow rate measurement with a graduated cylinder. […] The pressure transducer was connected to a Grass Chart Recorder (Model 7) to record left ventricular pressure and its first derivative (dp/dt), and heart rate. Hearts with left ventricular developing pressure less than 85 mmHg at the end of the 15-min equilibrium period were not included in the study. The cardiac function indexes measured were LVDP (left ventricular developed pressure), dp/dtmax (the maximal value of the first derivative of the LVDP), heart rate, and coronary flow. […] Measurements for cardiac function were taken at the end of each 5 min drug treatment. The effect of drug treatment is expressed as the percent change of values before and after each drug treatment: % Change from Baseline=[(Value after drug−Value before drug)/Value before drug]×100 Statistical Analysis

[8] = tested on: adenosine A2A-expressing Chinese hamster ovary (CHO) cells; assay: CRE-luciferase assay (intracellular cAMP) in CHO cells expressing human adenosine A2A receptor; type: cell-based; details: range 0.5 μM to 10 μM
Protocol: The level of luciferase expression reflects the concentration of intracellular cAMP. […] Therefore, the activation of the receptors would be reflected by luciferase expression, where the expression level can be measured by the luciferase activity assay. Co-transfection of the luciferase reporter vector with the vectors containing adenosine A2A receptors was carried out by calcium phosphate precipitation into Chinese hamster ovary (CHO) cells. Stable transfectants were selected with 1.0 mg/ml G418 (Life Technologies) for 12 days. The cell clones over-expressing functional adenosine A2A receptors were determined by luciferase expression under the stimulation of adenosine.
The next day, the cells were washed once with F12K medium supplemented with 0.5% FCS and then incubated with 100 μl of the medium only (basal) or medium plus test agents for 4 hours at 37° C. After equilibrating to room temperature, 100 μl of detection substrate (Bright-Glo™ luciferase assay system, Promega, Madison, Wis.) were added to each well. The luciferase activity was measured after 5 minutes using a Mediators PhL luminescence plate reader (ImmTech, New Windsor, Md.). The value of luminescence (arbitrary unit) detected during half a second was taken as luciferase activity.

[9] = 2 and 4 hours after a single dose of 200 mg, previous pharmacokinetic data; cited from earlier work
whole blood = assay: adenosine concentration in plasma of collagen-stimulated whole blood (HPLC); type: cell-based, human; details: dipyridamole 1 μM, 5 minutes after 2 μg/ml collagen, n=3
Protocol: Blood was drawn and mixed with recombinant human huridin (100 U/ml). The same procedure for platelet aggregation was used to stimulate these platelets with collagen (2 μg/ml). After a 5-minute incubation, 500 μl of WB were mixed quickly with 500 μl of ice-cold saline. The cells were spun at 20,000×g for 4 minutes at 4° C. Supernatant (600 μl) was first mixed with 300 μl PCA (2.5 N) and then neutralized with 300 μl of KHCO3 (2.5 M). Finally, the mixture was centrifuged at 20,000×g for 15 minutes at 4° C. The adenosine concentration in the supernatants was measured using reverse-phase high performance liquid chromatography (HPLC, Waters Alliance 2690) with a Hypersil 3μ C18 column (150 mm×4.6 mm) and a gradient from 5 to 20% methanol in 20 mM KH2PO4. Adenosine was detected using a diode array detector (Water 996) with an absorbance change at 258 nm and quantified by comparison of retention times and peak height with those of a known external standard. Quantification was performed using Waters Millennium 32 Client/Server software.

[10] = tested on: adenosine uptake into CHO cells over-expressing functional human A2A receptors; assay: [3H]adenosine uptake into CHO cells over-expressing human A2A receptors; type: cell-based; details: compared with platelets and erythrocytes, data not shown
[11] = dipyridamole 0.3, 1 or 3 μM with cilostazol

With Nc1nc(NCCc2ccc(O)cc2)nc2nc(-c3ccco3)nn12 [ZM241385] the “effect on the synergistic effect of dipyridamole and cilostazol on whole blood aggregation” value ([1]; ZM241385 0.1 μM, n=8) was “reverted back to the basal level of cilostazol alone”.
For Nc1ncnc2c1ncn2[C@@H]1O[C@H](CO)[C@@H](O)[C@H]1O [adenosine], the “effect on collagen-induced platelet aggregation” value (human washed platelets; 1 μM, by itself) was “little effect” and the “inhibitory effect on washed platelet aggregation” value (human washed platelets) was “no effect”.
In the case of O=C1CCc2cc(OCCCCc3nnnn3C3CCCCC3)ccc2N1 [cilostazol, 6-[4-(1-cyclohexyl-1H-tetrazol-5yl)butoxy]-3,4-dihydro-2(1H)-quinolinone], the blood concentration [2] is reported as “about 1 μM”, the IC50 ([3]; Homo sapiens, Erythrocyte, washed erythrocytes, n=3, read-out: IC50 of adenosine uptake inhibition) is reported as ~7 µM and the “inhibition of ex vivo platelet aggregation” value [4] is reported as “neither cilostazol nor dipyridamole alone inhibited”. The “effects on cardiac function” value [5] was “minimal effects”, the IC50 (PDE3) was 320 nM and the blood concentration [6] was “about 2 μM”. For the same molecule, the IC50 (adenosine uptake; various cells (rabbit cardiac myocytes, human vascular smooth muscle, endothelial cells), Liu et al., 2000) was 5000 to 10000 nM, the “effect on collagen-induced platelet aggregation” value (human washed platelets; 1 μM, by itself) was “little effect” and the IC50 (human washed platelets; read-out: IC50 of Cilostazol on Platelet Aggregation, +Adenosine (1 μM)) was 380 ± 50 nM. It also gave an IC50 (human washed platelets; read-out: IC50 of Cilostazol on Platelet Aggregation, +Adenosine + Dipyridamole (1 μM)) of 170 ± 40 nM, an IC50 (human washed platelets; read-out: IC50 of Cilostazol on Platelet Aggregation, +Adenosine + Dipyridamole (3 μM)) of 110 nM and an IC50 (human washed platelets; read-out: IC50 of Cilostazol on Platelet Aggregation, +Adenosine + Dipyridamole (10 μM)) of 10 ± 10 nM. The IC50 (human washed platelets; read-out: IC50 of Cilostazol on Platelet Aggregation, cilostazol alone, washed platelets, collagen) was 2660 ± 410 nM, the “inhibitory effect on washed platelet aggregation” value (human washed platelets) was “no significant inhibitory effect” and the “effect on collagen-induced platelet aggregation” value (human washed platelets; cilostazol 1 μM combined with adenosine 1 μM) was “completely inhibited”. For the same molecule, the “inhibition of washed platelet aggregation” value (human washed platelets) was “significant differences from controls”, the “inhibition of platelet aggregation” value [1] was “did not cause any significant inhibition” and the “effect on platelet aggregation in whole blood” value [1] was “did not have a significant effect”. The coronary flow ([7]; cilostazol 3 or 10 μM) was “significantly increased”.
In the case of OCCN(CCO)c1nc(N2CCCCC2)c2nc(N(CCO)CCO)nc(N3CCCCC3)c2n1 [dipyridamole], the blood concentration [2] is reported as “about 1 μM”, the “inhibition of ex vivo platelet aggregation” value [4] is reported as “neither cilostazol nor dipyridamole alone inhibited” and the “dipyridamole concentration of peak enhancement of cilostazol effect on luciferase activity” value [8] is reported as “about 5 μM”. For the same molecule, the IC50 (adenosine uptake) was 10 nM, the “inhibitory effect on washed platelet aggregation” value (human washed platelets) was “no significant inhibitory effect” and the “inhibition of washed platelet aggregation” value (human washed platelets) was “enhanced the effect of dipyridamole significantly”. For the same molecule, the blood concentration [9] was “about 2 μM”, the “adenosine levels in whole blood plasma” value (whole blood) was 5.916 ± 0.641 µM and the “inhibition of platelet aggregation” value [1] was “did not cause any significant inhibition”. For the same molecule, the “effect on platelet aggregation in whole blood” value [1] was “did not have a significant effect”, the platelet aggregation ([1]; dipyridamole 1 μM, 2 μg/ml collagen) was “not affected” and the “effect on cardiac function” value ([7]; dipyridamole 0.3, 1 or 3 μM alone) was “no significant effect”. For the same molecule, the “cilostazol-induced increase of cardiac contractility” value [7, 11] was “significantly reduced”, the “cilostazol-induced increase of heart rate” value [7, 11] was “significantly reduced” and the “cilostazol-induced increase in coronary flow” value ([7]; dipyridamole 1 and 3 μM with cilostazol 10 μM) was “augmented”.
For Cc1[nH]c(=O)c(C#N)cc1-c1ccncc1 [milrinone], the “effect on adenosine uptake” value ([3]; erythrocytes) is given as “virtually no effect”, the “inhibition of [3H]adenosine uptake” value [10] is given as “no effect” and the “inhibitory effect on adenosine uptake” value (adenosine uptake; at concentrations as high as 100 μM, Liu et al., 2000) is given as “no significant inhibitory effect”.

Reference: patent publication US20050165030A1, “Pharmaceutical compositions comprising a multifunctional phosphodiesterase inhibitor and an adenosine uptake inhibitor” (priority 2001, published 2005)
